Results: PubChem BioAssay (NCI)
Where “and” joins values, the source holds several entries; their conditions need not be identical. Equal entries are not always repeated.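 Method: 48-hour compound exposure of cells in 96-well plates, five concentrations, linear interpolation of endpoints. At the GI50, growth is halved. At the TGI there is no net growth.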

Columns and labels:
Experiment in all cases: growth of human tumour cells (NCI), 48 h
HOP-62 NSCLC = test system: HOP-62 NSCLC
KM12 colon = test system: KM12 colon
SF-539 CNS = test system: SF-539 CNS
MDA-MB-231 breast = test system: MDA-MB-231 breast
HT29 colon = test system: HT29 colon
TK-10 renal = test system: TK-10 renal
NCI-H23 lung = test system: NCI-H23 lung
SN12C renal = test system: SN12C renal
OVCAR-4 ovarian = test system: OVCAR-4 ovarian
BT-549 breast = test system: BT-549 breast

| Compound | GI50 (HOP-62 NSCLC) | TGI (HOP-62 NSCLC) [µM] | GI50 (KM12 colon) | TGI (KM12 colon) [µM] | GI50 (SF-539 CNS) [µM] | TGI (SF-539 CNS) [µM] | GI50 (MDA-MB-231 breast) | TGI (MDA-MB-231 breast) [µM] | GI50 (HT29 colon) | TGI (HT29 colon) [µM] | GI50 (TK-10 renal) [µM] | TGI (TK-10 renal) [µM] | GI50 (NCI-H23 lung) [µM] | TGI (NCI-H23 lung) [µM] | GI50 (SN12C renal) [µM] | TGI (SN12C renal) [µM] | GI50 (OVCAR-4 ovarian) [µM] | TGI (OVCAR-4 ovarian) [µM] | GI50 (BT-549 breast) [µM] | TGI (BT-549 breast) [µM] |
| --- | --- | --- | --- | --- | --- | --- | --- | --- | --- | --- | --- | --- | --- | --- | --- | --- | --- | --- | --- | --- |
| CC1(C)CC2(C)OC2C2(C1)N=NC(=Nc1ccccc1)O2 (stereo unspecified) | 8.76 µM | 30.4 | 13.6 µM | 28.6 | 7.94 | 20.9 | 2.61 µM | 7.75 | 2.95 µM | 10.9 | 3.44 | 8.31 | 5.93 | 29.9 | 2.48 | 8.33 | 3.45 | 17.2 | 2.22 | 4.99 |
| CC(C)C[C@H](NC(=O)[C@@H](O)[C@H](N)Cc1ccccc1)C(=O)O | – | > 100 | – | > 100 | – | > 100 | – | > 100 | – | > 100 | – | > 100 | – | > 100 | – | > 100 | – | > 100 | > 100 | > 100 |
| COc1ccc(N=C2NN=C(c3c[nH]c4ccccc34)CS2)cc1OC | 12.7 µM | > 84.1 | 3.05 µM | > 84.2 | 8.25 | > 100 | 8.73 µM | > 100 | 4.01 µM | > 43.6 | 38 | > 100 | 13.5 | > 93.2 | 18.4 | > 100 | 16 | > 100 | 4.2 | > 42.5 |
| C=C(CC1(CC(=C)c2ccc(C(=O)O)cc2)C(=O)N(C)C(=O)N(C)C1=O)c1ccc(C(=O)O)cc1 | 66.5 µM | > 100 | > 100 µM | > 100 | > 100 | > 100 | > 100 µM | > 100 | 48.7 µM | > 100 | 16 | > 100 | > 100 | > 100 | 59.2 | > 100 | 23.2 | > 100 | > 100 | > 100 |
| CCC1(N2C(=O)c3c(F)c(F)c(F)c(F)c3C2=O)C(=O)NC(=O)N(c2ccccc2)C1=O (stereo unspecified) | 4.93 µM | 20.8 | 2.58 µM | 8.31 | 2.24 | 4.33 | 1.7 µM | 4.03 | 2.23 µM | 4.89 | 2.4 | 5.57 | 1.99 | 4.02 | 1.57 | 3.54 | 1.74 | 4.08 | 2.1 | 4.76 |
| O=C(Cc1nc2ccc([N+](=O)[O-])cc2[nH]c1=O)C(=O)Nc1cc(Cl)c(Cl)cc1Cl | – | > 100 | – | > 100 | – | > 100 | – | > 100 | – | > 100 | – | > 100 | – | > 100 | – | > 100 | – | > 100 | – | > 100 |
| CCNC(=O)Oc1ccc(/C(=C(\C)c2ccc(Cl)cc2)c2ccc(OCCN3CCCCC3)cc2)cc1 | 4.12 µM | 15.4 | 3.81 µM | 15.4 | 1.81 | 3.59 | 3.55 µM | 11.5 | 3.16 µM | 10.9 | 19.5 | 34.6 | 5.1 | 19.7 | 5.95 | 19.2 | 2.99 | 12.9 | 4.27 | 16.6 |
| CN(C)c1ccc(Sc2ccc3nc(N)nc(N)c3c2)cc1 | 0.884 µM | 15.6 | 1.16 µM | 12.2 | 0.985 | 10.3 | 2.23 µM | 14.1 | 0.453 µM | 12 | 4.11 | 15.5 | 0.665 | 18 | 0.761 | 14.2 | 1.76 | 17.1 | 3.28 | 19.5 |
| C[C@H](NC(=O)CCC(F)(F)F)C(=O)N[C@@H]1C(=O)N(CCO)c2ncccc2-c2ccccc21 | > 100 µM | > 100 | > 100 µM | > 100 | > 100 | > 100 | > 100 µM | > 100 | > 100 µM | > 100 | > 100 | > 100 | > 100 | > 100 | > 100 | > 100 | > 100 | > 100 | > 100 | > 100 |
| CC(=O)N[C@@H]1CCC[C@H](C(=O)Nc2cc(-c3cnn4c3CC(C)(C)C4)c(Cl)cn2)C1 | < 0.0113 µM | > 100 | < 0.01 µM | 12.2 | < 0.01 | 0.0187 | < 0.0133 µM | > 100 | < 0.0108 µM | > 100 | < 0.01 | > 100 | < 0.0116 | 0.181 | 0.0103 | > 100 | 0.0235 | 25.4 | < 0.01 | 0.0499 |
| COC(=O)Nc1nc2ccc(Sc3ccc(NC(=O)Nc4cc(C(F)(F)F)ccc4F)cc3)cc2[nH]1 | 3.73 µM | 9.56 | 0.113 µM | 3.99 | 3.23 | 7.98 | 2.84 µM | 9.32 | 1.4 µM | 4.54 | 5.11 | 11.3 | 3.84 | 11.9 | 3.82 | 11 | 3.64 | 10.7 | 7.86 | 24.2 |
| O=C(NO)C(O)C(O)C(O)C(O)CO (stereo unspecified) | > 92.5 µM and 68.3 µM | > 100 | > 100 µM and 53.2 µM | > 100 | > 100 | > 100 | > 100 µM and 58.8 µM | > 100 | > 100 µM and 38.1 µM | > 100 | > 100 | > 100 | > 100 | > 100 | > 100 | > 100 | > 100 | > 100 | > 100 | > 100 |
